# Results as given in ChEMBL document CHEMBL1201862, “PubChem BioAssay data set” (2004).
# Calls of active or inactive are those of the source.
# What was measured:
# [1] = target: T1, Polyadenylate-binding protein 1 (Homo sapiens, UniProt P11940); experiment: PABP1 MLLE–PAM2 interaction inhibitors, dose response, miRNA deadenylation inhibitor project, biochemical, fluorescence polarization, Cy5-PAM2 peptide, secondary (AID 602260); format: functional; settings: read-out: IC50_Mean
# [2] = target: T1, Polyadenylate-binding protein 1; experiment: PABP1 MLLE–PAM2 binding inhibitor potency, dose response, biochemical, fluorescence polarization, FITC-PAM2 peptide (AID 602259); format: functional; settings: read-out: IC50_Mean
# Large T antigen = Large T antigen (Simian virus 40, UniProt P03070); format: functional, Betapolyomavirus macacae;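 also: Confirmatory-stage PubChem screen for compounds that inhibit SV40 T antigen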
# Large T antigen, sequence (P03070 whole entry): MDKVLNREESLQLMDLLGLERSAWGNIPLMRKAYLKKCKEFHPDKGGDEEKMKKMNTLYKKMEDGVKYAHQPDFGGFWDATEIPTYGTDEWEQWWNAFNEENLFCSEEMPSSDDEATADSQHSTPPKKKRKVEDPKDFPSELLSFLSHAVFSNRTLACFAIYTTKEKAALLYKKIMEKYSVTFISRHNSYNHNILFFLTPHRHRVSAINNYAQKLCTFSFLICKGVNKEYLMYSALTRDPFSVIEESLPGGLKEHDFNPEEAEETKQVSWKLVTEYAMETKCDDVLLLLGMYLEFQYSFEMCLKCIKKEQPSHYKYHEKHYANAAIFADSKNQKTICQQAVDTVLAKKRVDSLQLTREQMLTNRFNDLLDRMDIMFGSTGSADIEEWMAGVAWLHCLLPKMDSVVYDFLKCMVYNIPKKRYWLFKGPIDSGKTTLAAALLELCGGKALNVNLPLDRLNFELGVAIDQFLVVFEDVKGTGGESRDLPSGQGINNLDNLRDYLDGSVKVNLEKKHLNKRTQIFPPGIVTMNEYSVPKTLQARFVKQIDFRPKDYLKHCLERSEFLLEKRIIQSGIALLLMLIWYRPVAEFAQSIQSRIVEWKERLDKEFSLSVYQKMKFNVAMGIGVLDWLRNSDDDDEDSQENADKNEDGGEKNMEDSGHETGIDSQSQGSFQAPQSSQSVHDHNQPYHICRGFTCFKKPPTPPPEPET
# Leucine aminopeptidase = target: T2, Leucine aminopeptidase (Plasmodium falciparum 3D7, UniProt Q8IL11); experiment: P. falciparum M17LAP inhibitors, primary screen, biochemical, fluorogenic H-Leu-NHMec substrate, 1536-well (AID 1619); format: functional
# T2 sequence (Q8IL11 whole entry): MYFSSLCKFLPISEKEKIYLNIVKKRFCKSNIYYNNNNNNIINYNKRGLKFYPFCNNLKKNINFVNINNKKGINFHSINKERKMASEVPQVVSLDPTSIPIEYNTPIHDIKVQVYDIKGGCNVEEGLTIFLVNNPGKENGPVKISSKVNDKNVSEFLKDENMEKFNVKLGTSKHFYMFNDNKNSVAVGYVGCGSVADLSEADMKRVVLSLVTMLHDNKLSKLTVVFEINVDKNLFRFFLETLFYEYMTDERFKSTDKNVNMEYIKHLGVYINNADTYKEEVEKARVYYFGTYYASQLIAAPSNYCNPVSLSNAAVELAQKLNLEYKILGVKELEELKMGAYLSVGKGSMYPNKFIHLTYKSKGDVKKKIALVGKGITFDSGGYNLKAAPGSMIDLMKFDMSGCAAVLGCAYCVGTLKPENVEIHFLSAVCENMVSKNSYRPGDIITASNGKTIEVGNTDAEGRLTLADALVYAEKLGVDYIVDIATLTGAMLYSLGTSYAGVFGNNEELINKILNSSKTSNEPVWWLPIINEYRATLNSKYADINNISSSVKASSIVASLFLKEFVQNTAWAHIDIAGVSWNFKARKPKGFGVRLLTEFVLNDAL
# [3] = Luminescence Cell-Based Dose Confirmation HTS to Identify Inhibitors of Platelet Dense Granule Release. [Related pubchem assays: 1663 (Primary HTS), 1678 (Summary of Project)]; format: functional
# [4] = target: Luciferin 4-monooxygenase (Photinus pyralis, UniProt P08659); experiment: firefly luciferase enzyme inhibitors, dose response, biochemical, luminescence (AID 1891)
# Luciferin 4-monooxygenase, sequence (P08659 whole entry, the tested form may be a part): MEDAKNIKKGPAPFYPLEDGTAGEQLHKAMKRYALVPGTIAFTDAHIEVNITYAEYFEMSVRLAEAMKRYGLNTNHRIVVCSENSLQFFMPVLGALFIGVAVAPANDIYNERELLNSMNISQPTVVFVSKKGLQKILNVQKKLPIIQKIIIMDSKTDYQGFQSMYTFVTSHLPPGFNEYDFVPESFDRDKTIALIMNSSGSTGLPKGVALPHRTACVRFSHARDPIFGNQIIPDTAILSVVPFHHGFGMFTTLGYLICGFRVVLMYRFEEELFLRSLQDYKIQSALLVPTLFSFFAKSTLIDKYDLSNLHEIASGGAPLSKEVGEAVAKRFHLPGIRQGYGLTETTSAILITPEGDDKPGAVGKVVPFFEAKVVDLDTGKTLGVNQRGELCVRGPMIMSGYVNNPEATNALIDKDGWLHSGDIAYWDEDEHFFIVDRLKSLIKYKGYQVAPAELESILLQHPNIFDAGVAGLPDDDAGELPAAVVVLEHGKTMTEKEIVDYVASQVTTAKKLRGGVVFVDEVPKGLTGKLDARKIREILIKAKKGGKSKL
# [5] = inhibitors of clade B AD8 Env fusion, dose response, cell-based, cherry-pick (AID 652062); format: functional;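 also: luciferase signal from cell-cell fusion driven by HIV-1 clade B AD8 Env; potency is for inhibitors of fusion seen as a drop in luminescence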
# INS1 = experiment: beta cell apoptosis inhibitors, cytokine rescue, dose response, luminescence, retest (AID 449756); format: functional, cell-based; settings: Rattus norvegicus;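 also: cell death triggered by IL-1 beta plus TNF-alpha plus IFN-gamma mixture; protective hits raise ATP signal compared with cytokine alone wells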
# [6] = C. albicans growth with fluconazole, confirmation, fluorescence, retest (AID 2467); format: functional, cell-based
# [7] = growth suppression of PTEN-null colon cells, dose response, cell-based, HCT116 PTEN knockout (AID 1047); format: functional;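 also: HCT116 colon tumor cells with PTEN knocked out; cells exposed to compound for 60 hours before readout; potency for loss of cell viability measured by luminescence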
# [8] = NIH-3T3 fibroblast cytotoxicity, dose response, cytotoxicity control, cell-based, fluorescence, Alamar Blue, secondary assay (AID 2327); format: functional;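 also: NIH-3T3 mouse fibroblasts cultured with fluconazole at 8 µg/mL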
# [9] = growth suppression of beta-catenin-knockout colon cells, dose response, cell-based, HCT116, human colon tumor (AID 1045); format: functional;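 also: HCT116 colon tumor cells with beta catenin knocked out; cells exposed to compound for 60 hours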
# Cytochrome P450 2C9 = Cytochrome P450 2C9 (Homo sapiens, UniProt P11712)
# Cytochrome P450 2C9, sequence (P11712 whole entry): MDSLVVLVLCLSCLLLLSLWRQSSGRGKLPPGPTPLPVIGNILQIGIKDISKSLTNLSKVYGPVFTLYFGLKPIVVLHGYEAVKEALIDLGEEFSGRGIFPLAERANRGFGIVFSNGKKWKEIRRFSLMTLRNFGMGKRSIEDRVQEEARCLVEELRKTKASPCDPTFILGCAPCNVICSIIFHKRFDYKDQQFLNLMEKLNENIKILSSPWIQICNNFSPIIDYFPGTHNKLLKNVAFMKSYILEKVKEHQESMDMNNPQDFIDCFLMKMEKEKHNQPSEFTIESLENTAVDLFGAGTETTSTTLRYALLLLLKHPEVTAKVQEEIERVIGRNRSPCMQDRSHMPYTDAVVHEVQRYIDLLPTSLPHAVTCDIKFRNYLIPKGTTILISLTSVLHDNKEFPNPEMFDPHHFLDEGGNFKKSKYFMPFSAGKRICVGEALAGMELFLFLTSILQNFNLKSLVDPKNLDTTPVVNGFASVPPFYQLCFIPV
# [10] = cytotoxicity in HEK-293T cells, dose response, cytotoxicity control for TCR NF-kB inhibitor project, luminescence, T-cell screen hits (AID 489026); format: functional, cell-based;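 also: cells exposed to compound about 14 hours before the viability readout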
# [11] = Luminescence Cell-Based Dose Retest to Confirm Inhibitors of Cancer Stem Cells. [Related pubchem assays (depositor defined):AID2717, AID2721]; format: functional; settings: Homo sapiens
# P388 = experiment: cells; format: functional; settings: Mus musculus
# SN12K1 = experiment: cells; format: functional; settings: Homo sapiens
# P388/ADR = experiment: cells; format: functional; settings: Mus musculus
# [12] = target: T3, Rac GTPase-activating protein 1 (Homo sapiens, UniProt Q9H0H5); experiment: MgcRacGAP GTPase-activating activity inhibitors, confirmation, biochemical, ADP Hunter fluorescence, primary and confirmatory (AID 624330); format: functional
# T3 sequence (Q9H0H5 whole entry): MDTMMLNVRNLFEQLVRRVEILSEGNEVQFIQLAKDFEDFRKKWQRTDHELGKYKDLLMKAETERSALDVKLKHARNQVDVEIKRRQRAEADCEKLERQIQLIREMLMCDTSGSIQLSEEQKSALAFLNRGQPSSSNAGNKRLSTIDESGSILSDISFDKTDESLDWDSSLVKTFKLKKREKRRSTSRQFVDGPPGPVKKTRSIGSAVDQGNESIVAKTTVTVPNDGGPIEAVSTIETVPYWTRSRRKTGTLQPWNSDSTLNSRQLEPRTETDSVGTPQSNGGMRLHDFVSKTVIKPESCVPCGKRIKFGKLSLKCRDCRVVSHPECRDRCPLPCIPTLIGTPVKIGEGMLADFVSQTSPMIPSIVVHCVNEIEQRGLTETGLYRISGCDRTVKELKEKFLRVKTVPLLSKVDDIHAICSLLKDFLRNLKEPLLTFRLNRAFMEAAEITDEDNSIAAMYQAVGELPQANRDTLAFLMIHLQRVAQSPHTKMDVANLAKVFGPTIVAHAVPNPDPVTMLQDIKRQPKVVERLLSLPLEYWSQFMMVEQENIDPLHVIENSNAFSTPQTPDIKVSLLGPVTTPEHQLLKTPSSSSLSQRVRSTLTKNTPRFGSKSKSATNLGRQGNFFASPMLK
# [13] = Luminescence Cell-Based Dose Response HTS to Identify Inhibitors of 5'UTR Stem-Loop Driven Prion Protein mRNA Translation in H4 Neuroglioblastoma Cells. [Related pubchem assays: 1827 (Project Summary), 1813 (Primary HTS)]; format: functional
# [14] = control 3'UTR Renilla luciferase suppression, dose response, counter-screen for Shn3 inhibitor project, cell-based, Clone20-Shn3RL, cherry-picked (AID 624133); format: functional
# [15] = HepG2 cell cytotoxicity, dose response, cytotoxicity control for Shn3 inhibitor project, CellTiter-Glo, cherry-picked (AID 624134); format: functional, cell-based
# [16] = Shn3 3'UTR reporter inhibitors, dose response, cell-based, Clone20 osteoblasts, firefly luciferase, cherry-picked (AID 624132); format: functional;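 also: firefly luciferase luminescence from reporter carrying the Shn3 3'UTR in osteoblasts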
# T1 sequence (P11940 whole entry): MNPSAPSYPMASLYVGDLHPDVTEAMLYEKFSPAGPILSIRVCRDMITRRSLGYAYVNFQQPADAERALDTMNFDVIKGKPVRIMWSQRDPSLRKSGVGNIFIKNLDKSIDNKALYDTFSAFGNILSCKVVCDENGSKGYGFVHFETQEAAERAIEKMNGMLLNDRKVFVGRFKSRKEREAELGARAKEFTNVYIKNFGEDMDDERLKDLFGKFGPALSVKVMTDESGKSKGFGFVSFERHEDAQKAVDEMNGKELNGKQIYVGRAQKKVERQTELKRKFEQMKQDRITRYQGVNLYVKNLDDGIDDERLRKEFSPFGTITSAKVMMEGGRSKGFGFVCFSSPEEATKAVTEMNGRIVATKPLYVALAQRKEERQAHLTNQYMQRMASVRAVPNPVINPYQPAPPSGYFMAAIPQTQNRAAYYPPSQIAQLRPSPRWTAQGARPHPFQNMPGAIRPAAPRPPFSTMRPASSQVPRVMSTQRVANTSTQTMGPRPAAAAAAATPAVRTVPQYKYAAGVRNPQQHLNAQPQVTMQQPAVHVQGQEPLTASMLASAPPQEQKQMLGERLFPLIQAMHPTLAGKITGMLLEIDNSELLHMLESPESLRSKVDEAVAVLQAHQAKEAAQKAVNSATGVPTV
compound,measurement,setting,value
O=C(NC(=S)Nc1cccc(Cl)c1N1CCOCC1)c1cccs1,IC50,[1],> 66 µM (inactive)
same,IC50,[2],> 66 µM (inactive)
N#C/C(=C\c1ccccc1OCc1ccc(C(=O)O)cc1)C(=O)Nc1ccc(O)cc1,IC50,Large T antigen,11.5 µM (active)
O=C(O)C12CC3CC(C1)CC(n1ncc(NCc4ccccc4)c(Cl)c1=O)(C3)C2,IC50,Leucine aminopeptidase,90 µM (active)
Cc1cc2ncn(-c3ncccc3[N+](=O)[O-])c2cc1C,IC50,[1],> 66 µM (inactive)
same,IC50,[2],> 66 µM (inactive)
CCOc1ccc(NC(=O)C2CC=CCC2C(=O)O)cc1 (configuration not stated),IC50,Leucine aminopeptidase,10.5 µM (active)
COc1ccccc1NC(=O)NC1(C(=O)N2CCCCCC2)CCCCC1,EC50,[3],> 112 µM (not active)
same,EC50,[4],> 112 µM (not active)
Cc1cnc([N+](=O)[O-])n1CCOC(=O)NC(=O)c1cccc(F)c1,EC50,[3],18.4 µM (active)
same,EC50,[4],> 112 µM (not active)
Cc1ccccc1OCCCCn1cnc2ccccc21,AC50,[5],4.16 µM (active)
same,AC50,INS1,6.87 µM (active)
COc1cc(/C=C/C(=O)Nc2nnc(CC(C)(C)C)s2)cc(OC)c1OC,IC50,[1],> 66 µM (inactive)
same,IC50,[2],> 66 µM (inactive)
COc1cc2c(cc1OC)-c1cc(Nc3ccccc3)nc(=O)n1CC2,EC50,[3],1.63 µM (active)
same,EC50,[4],> 112 µM (not active)
CCN(C(=O)CN1C(=O)NC(c2ccccc2)(c2ccccc2)C1=O)c1ccccc1,EC50,[3],> 112 µM (not active)
same,EC50,[4],> 112 µM (not active)
Cc1ccccc1C(=O)Nc1nnc(-c2ccc(F)cc2)o1,EC50,[6],1.25 µM (active)
same,EC50,[7],18.4 µM (active)
same,EC50,[8],> 150 µM (inactive)
same,EC50,[9],16.6 µM (active)
CCNC(=O)c1c(NC(C)=O)sc2c1CCCC2,EC50,[3],15.2 µM (active)
same,EC50,[4],> 112 µM (not active)
same,AC50,Cytochrome P450 2C9,17.8 µM (inconclusive)
Cc1ccc(S(=O)(=O)CCC(=O)OCC(=O)NCC(=O)Nc2cccc(C)c2C)cc1,EC50,[3],> 112 µM (not active)
same,EC50,[4],> 112 µM (not active)
CCOc1ccc(NC(=O)CSc2nnc(CCNC(=O)c3ccc(OC)cc3)n2CC)cc1,IC50,Leucine aminopeptidase,8.71 µM (active)
CCN1C(=O)C(=Cc2ccc(C)s2)C(=O)N(CC)C1=S,EC50,[7],9.84 µM (active)
same,EC50,[9],31.9 µM (active)
Cc1oc(C(C)(C)C)cc1C(=O)NC(Cc1ccccc1)C(=O)O (configuration not stated),IC50,Leucine aminopeptidase,12.7 µM (active)
N#Cc1c(-c2ccco2)c2c([nH]c1=S)CCCC2,IC50,Large T antigen,37.7 µM (active)
O=C(Nc1ncc(Cc2ccc(SC(F)F)cc2)s1)c1ccc(OC(F)F)cc1,IC50,[10],> 80 µM (inactive)
same,AC50,[11],< 0.16 µM (active)
COc1ccc(NC(=O)C2CCCN(c3nn4c(=O)cc(C)nc4s3)C2)cc1 (configuration not stated),EC50,[3],> 112 µM (not active)
same,EC50,[4],> 112 µM (not active)
COc1ccc(NC(=O)NCCCN2CCN(c3cc(C)ccc3C)CC2)cc1,EC50,[7],10.2 µM (active)
same,EC50,[9],7.42 µM (active)
O=[N+]([O-])c1ccc(S(=O)(=O)Nc2ccc3c(c2)OCCO3)cc1,IC50,[1],> 66 µM (inactive)
same,IC50,[2],> 66 µM (inactive)
Cc1cc(C)c(NC(=O)CN2C(=O)NC3(CCCCC3)C2=O)c(C)c1,IC50,Leucine aminopeptidase,19.5 µM (active)
Cc1ccccc1-c1nc(S(=O)(=O)c2ccccc2)c(N2CCCC2)o1,IC50,[1],> 66 µM (inactive)
same,IC50,[2],> 66 µM (inactive)
Nc1nc(F)nc2c1ncn2C1OC(COP(=O)(O)O)C(O)C1O (configuration not stated),GI50,P388,3.24 µM (inactive)
same,GI50,SN12K1,18.1 µM (inactive)
same,GI50,P388/ADR,4.22 µM (inactive)
CC1CC(C)CC(C)C(O)/C(C#N)=C/C=C/CC(C2CCCC2C(=O)O)OC(=O)CC(O)C(C)C1 (configuration not stated),GI50,P388,< 0.01 µM (active)
same,GI50,SN12K1,< 0.0109 µM (active)
same,GI50,P388/ADR,< 0.01 µM (active)
Cc1cc(C)c(C2=NO[C@@H]3[C@H]2C(=O)C=C2N(Cc4ccccc4)CCO[C@@]23O)c(C)c1,GI50,P388,> 100 µM (inactive)
same,GI50,SN12K1,> 100 µM (inactive)
same,GI50,P388/ADR,> 100 µM (inactive)
CC1CC=CC(O)C1 (configuration not stated),GI50,P388,55 µM (inactive)
same,GI50,SN12K1,> 100 µM (inactive)
same,GI50,P388/ADR,> 100 µM (inactive)
CCN(CC)CCOC(=O)Cc1cccc2c(=O)cc(-c3ccccc3)oc12,GI50,P388,206 µM (inactive)
same,GI50,SN12K1,24.7 µM (inactive)
same,GI50,P388/ADR,122 µM (inactive)
CN(C)CCNC(=O)c1ccc(Cl)c2ccc(-c3ccccc3)nc12,GI50,P388,1.13 µM (inactive)
same,GI50,SN12K1,2.28 µM (inactive)
same,GI50,P388/ADR,1.95 µM (inactive)
COCC1N=C(c2cc(OC)c(OC)c(OC)c2-c2cc3c(cc2[C@@H](C)O)OCO3)O[C@H]1c1ccccc1 (some centres not stated),GI50,P388,64.3 µM (inactive)
same,GI50,SN12K1,55.5 µM (inactive)
same,GI50,P388/ADR,> 100 µM (inactive)
COc1cc(C2c3cc4c(cc3[C@@H](Nc3cccc([N+](=O)[O-])c3)C3COC(=O)[C@H]23)OCO4)cc(OC)c1O (some centres not stated),GI50,P388,< 0.0193 µM (active)
same,GI50,SN12K1,0.589 µM (active)
same,GI50,P388/ADR,0.783 µM (active)
COc1cc(/C=N\NC(=O)c2ccc(Cn3nc([N+](=O)[O-])c(Cl)c3C)o2)ccc1O,IC50,Large T antigen,32.7 µM (active)
same,IC50,[12],30.5 µM (active)
COc1cc(/C=N/N(C)c2ccccc2)ccc1O,IC50,Large T antigen,8.47 µM (active)
same,IC50,[12],15.6 µM (active)
N#CC(c1ccc(Cl)cc1)c1ccc2c(C(F)(F)F)cc(C(F)(F)F)nc2n1 (configuration not stated),EC50,[13],8.03 µM (active)
same,EC50,[7],0.349 µM (active)
same,EC50,[9],0.321 µM (active)
same,AC50,[14],1.38 µM (active)
same,AC50,INS1,0.54 µM (active)
same,AC50,[15],2.97 µM (active)
same,AC50,[16],0.487 µM (active)
C[C@@H](CN1CC(=O)NC(=O)C1)N1CC(=O)NC(=O)C1 [DEXRAZOXANE],GI50,P388,49.3 µM (inactive)
same,GI50,SN12K1,24.2 µM (inactive)
same,GI50,P388/ADR,394 µM (inactive)
